Reference: paper PMC9228592, “Dichloroacetyl Amides of 3,5-Bis(benzylidene)-4-piperidones Displaying Greater Toxicity to Neoplasms than to Non-Malignant Cells” (Medicines, 2022)

How the values were obtained:
Format in all cases: cell-based, human
[1] = tested on: Ca9-22 squamous cell carcinoma cells; assay: Cytotoxicity (MTT, 48 h) against Ca9-22 cells; settings: Homo sapiens, Ca9-22; 48 h, MTT, mean ± S.D. of triplicate
Source text: (§1) The target cells used in our study were human oral squamous cell carcinoma cell lines Ca9-22 (purchased from RIKEN Cell Bank, Tukuba, RCB-1976), HSC-2 (RCB1945), HSC-3 (RCB1975), HSC-4 (RCB1902), and three human normal oral cells, gingival fibroblast (HGF), periodontal ligament fibroblast (HPLF), and pulp cells (HPC) [established from the first premolar extracted tooth in the lower jaw (because of dysfunctional position or orthodontic treatment) and periodontal tissues of a child, according to the guideline of the Institutional Board of Meikai University Ethics Committee (No. A0808)], after obtaining informed consent from the patients. These cells were incubated for 48 h with the indicated concentrations of test samples or reference compounds sodium dichloroacetate (purchased from Sigma-Aldrich Chemical Company, Saint Louis, MO, USA), 5-fluorouracil (5-FU) from Kyowa (Tokyo, Japan), and doxorubicin (DXR) (St. Louis, MO, USA) and vehicle (DMSO) (0.008, 0.016, 0.031, 0.063, 0.125, 0.25, 0.5, and 1%) in Dulbecco’s Modified Eagle Medium (DMEM) media, which was supplemented with 10% heat-inactivated fetal bovine serum. Cell viability was determined by the MTT method. Cytotoxicity caused by the vehicle (DMSO) was subtracted.
(§2) SI was calculated by dividing the average CC50 value (concentration of the compound to kill 50% of the cells) of the compound towards HGF, HPLF, and HPC cells by the CC50 value of the compound against a specific neoplastic cell line.

[2] = tested on: HSC-2 squamous cell carcinoma cells; assay: Cytotoxicity (MTT, 48 h) against HSC-2 cells
Source text: as §1, §2

[3] = tested on: HSC-3 squamous cell carcinoma cells; assay: Cytotoxicity (MTT, 48 h) against HSC-3 cells
Source text: as §1, §2

[4] = tested on: HSC-4 squamous cell carcinoma cells; assay: Cytotoxicity (MTT, 48 h) against HSC-4 cells
Source text: as §1, §2

[5] = Cytotoxicity (MTT, 48 h) against HGF non-malignant cells; settings: human, normal gingival fibroblasts (HGF), mean ± S.D. of triplicate
Source text: as §1

[6] = Cytotoxicity (MTT, 48 h) against HPLF non-malignant cells; settings: human, normal periodontal ligament fibroblasts (HPLF), mean ± S.D. of triplicate
Source text: as §1

[7] = Cytotoxicity (MTT, 48 h) against HPC non-malignant cells; settings: female, human, normal pulp cells (HPC), mean ± S.D. of triplicate
Source text: as §1

[8] = tested on: Ca9-22, HSC-2, HSC-3, and HSC-4 cells; assay: Average cytotoxicity, selectivity and PSE over the four carcinoma lines
Source text: as §1, §2
PSE reflects both the potencies and differences in cytotoxicity to neoplasms and non-malignant cells. This value was the product of the reciprocal of the average CC50 value of the compounds towards Ca9-22, HSC-2, HSC-3, and HSC-4 cells and the average SI value × 100.

[9] = Average cytotoxicity over the three non-malignant cells; settings: female, human, normal oral cells HGF, HPLF and HPC (average over the three)
Source text: as §1

Ca9-22 cells [10] = assay: Cell cycle assay in Ca9-22 cells; settings: 20 h
Description: The evaluation of varying quantities of 1d,e,k on the cell cycle in Ca9-22 cells was undertaken by a literature method. In brief, Ca9-22 cells were treated for 20 h without (control) or with the indicated concentrations of the test samples. To neglect the cytotoxicity effect of DMSO, all samples contained 0.1% DMSO. Cells (approximately 10^6 cells) were harvested, fixed for 1 h on ice with 1% paraformaldehyde, washed twice by phosphate-buffered saline, treated for 30 min at 37 °C with 0.2 mg/mL RNase A (ribonuclease A), stained for 15 min at room temperature with 0.01% propidium iodide in the presence of 0.01% NP-40 (nonyl phenoxypolyethoxyethanol) to prevent cell aggregation, filtered through Falcon® cell strainers (pore size: 40 µm) (Corning, NY, USA), subjected to cell sorting (SH800 Series; SONY Imaging Products and Solutions Inc., Kanagawa, Japan), and then analyzed with Cell Sorter Software version 2.1.2. (SONY Imaging Products and Solutions Inc., Kanagawa, Japan).

Ca9-22 cells [11] = assay: Mitotic accumulation in Ca9-22 cells; settings: two highest concentrations of 3, 10, 30 times the CC50 value, 20 h
Description: Another way in which cytotoxicity could occur is by initiating mitosis. In order to examine this possibility, different concentrations of the potent cytotoxin 1k that were 3, 10, and 30 times the CC50 value were incubated with Ca9-22 cells for 20 h. […] In order to explore the possibility that the dichloroacetyl group contributed to this effect, concentrations of 2a that were 3, 10, and 30 times the CC50 concentration were incubated with Ca9-22 cells for 20 h. […] The question arose as to the way in which this observation could be useful in anticancer drug design. Cells which are stimulated to divide are likely more sensitive to a subsequent attack of a cytotoxin when cells are in a resting stage, for example.

PARP = PARP cleavage in Ca9-22 cells (Western blot); settings: 0.2 and 0.6 µM, 20 h
Description: (§3) The effect of 20 h incubation of different concentrations of 1k and 2a with Ca9-22 cells on the cleavage of PARP and procaspase 3 cleavage was undertaken using a reported procedure. In brief, the control and treated Ca9-22 cells at near confluent phase were collected and lysed, and protein samples of cell lysates (15 µg) were applied to SDS-polyacrylamide gel electrophoresis. After electrophoresis, the separated proteins were transferred onto a PVDF (polyvinylidene fluoride) filter. The blots were treated in skim milk and then probed for 120 min with a primary antibody cocktail (1:250) from an Apoptosis Western Blot Cocktail kit (purchased from Abcam, Cambridge, UK). The blots were washed and probed with horseradish peroxidase conjugated secondary antibody cocktail (1:100). Immunoreactivities were determined using Amer-sham ECL Select. Images were acquired using ChemiDoc MP System and Image Lab 4.1 software (Bio-Rad Laboratories, Hercules, CA, USA).

procaspase 3 = assay: Procaspase 3 cleavage in Ca9-22 cells (Western blot); settings: 0.2 and 0.6 µM, 20 h
Description: as §3

With `O=C1/C(=C/c2ccc([N+](=O)[O-])cc2)CN(C(=O)C(Cl)Cl)C/C1=C\c1ccc([N+](=O)[O-])cc1` [Compound 1k] the CC50 [1] was 20 ± 10 nM, the “HSC-2 CC50” value ([2]; 48 h, MTT, mean ± S.D. of triplicate) was “double-digit nanomolar” and the CC50 ([2]; Homo sapiens, HSC-2, 48 h, MTT, mean ± S.D. of triplicate) was 80 ± 10 nM. For the same compound, the “SI (HSC-2)” value ([2]; average CC50 towards HGF, HPLF, HPC divided by CC50 against HSC-2) was 18.0, the CC50 ([3]; Homo sapiens, HSC-3, 48 h, MTT, mean ± S.D. of triplicate) was 100 ± 30 nM and the “SI (HSC-3)” value ([3]; average CC50 towards HGF, HPLF, HPC divided by CC50 against HSC-3) was 14.4. For the same compound, the CC50 ([4]; Homo sapiens, HSC-4, 48 h, MTT, mean ± S.D. of triplicate) was 180 ± 40 nM, the “SI (HSC-4)” value ([4]; average CC50 towards HGF, HPLF, HPC divided by CC50 against HSC-4) was 8.00 and the CC50 at 48 h [5] was 3.01 ± 0.33 µM. It also gave a CC50 at 48 h [6] of 760 ± 130 nM, a CC50 at 48 h [7] of 560 ± 80 nM and a CC50 ([8]; Homo sapiens, average over Ca9-22, HSC-2, HSC-3, HSC-4) of 100 nM. The “average potency figure relative to 5-FU (times lower)” value ([8]; average CC50 compared with 5-FU) was 310 times, the “Average SI” value ([8]; average of SI over Ca9-22, HSC-2, HSC-3, HSC-4) was 28.1 and the CC50 at 48 h [9] was 1440 nM. The subG1 population (Ca9-22 cells [10]; 0.8 µM) was “slight increase”, the G2M cell population (Ca9-22 cells [10]; 0.8 µM, p < 0.05) was “most prominent increase” and the “effect on the cell cycle” value (Ca9-22 cells [10]; 0.1, 0.2, and 0.4 µM) was “little effects”. The “percentage of the cells undergoing mitosis” value (Ca9-22 cells [11]) was “increased significantly”, the PARP cleavage (PARP) was “PARP was cleaved” and the “cleavage of procaspase to caspase 3” value (procaspase 3) was “cleavage of procaspase to caspase 3 was observed”.
